This is an account of results in patent US20260200897A1, “4-((5-(3-(4-(PYRIDIN-2-YL)CYCLOPENTYL)-1H-PYRAZOL-3-YL)AMINO)-BENZENESULFONAMIDE DERIVATIVES AND SIMILAR COMPOUNDS AS CDK INHIBITORS FOR THE TREATMENT OF CANCER” (BeOne Medicines I GmbH, priority 2023, published 2026).

A value given as a limit tells only on which side of the number the result lay.

A word on the IC50: it is the midpoint of a concentration-inhibition curve. Higher therefore signals weaker potency in that assay.

The target in one assay is CDK1/Cyclin B1 (Homo sapiens, UniProt P06493). The experiment in a line: CDK1/Cyclin B1 TR-FRET biochemical assay, 0.015 mM ATP. To be noted: 0.15 μM Rb (Ser780)-biotin substrate, 120 min reaction, Table 1. How it is done: (§1) Compounds disclosed herein were tested for inhibition of CDK2/Cyclin E1 or CDK1/Cyclin B1 kinase in an assay based on the time-resolved fluorescence-resonance energy transfer (TR-FRET) methodology. The assay was carried out in 384-well low volume black plates in a reaction mixture containing CDK2/Cyclin E1 or CDK1/Cyclin B1, 0.060 mM ATP for CDK2/Cyclin E1 or 0.015 mM ATP for CDK1/Cyclin B1, 0.15 μM Rb (Ser780)-biotin substrate and 0-10 μM compound in buffer containing 50 mM HEPES pH7.0, 0.02% NaN3, 0.01% BSA, 0.1 mM Orthovanadate, 50 mM MgCl2, 1 mM DTT and 0.005% Tween-20. The kinase was incubated with compound for 60 minutes at room temperature and the reaction was initiated by the addition of ATP and Rb (Ser780)-biotin substrate. After reaction at room temperature for 120 minutes, an equal volume of stop/detection solution was added according to the manufacture's instruction (Cisbio Bioassays). The stop/detection solution contained Streptavidin-XL665 and Anti-pRb (Ser780) mAb-Eu Cryptate in Detection buffer (Cisbio Bioassays). Plates were incubated at room temperature for 60 minutes, and the TR-FRET signals (ex337 nm, em665 nm/620 nm) were recorded on a PHERAstar FSX plate reader (BMG Labtech). The inhibition percentage of CDK2/Cyclin E1 or CDK1/Cyclin B1 kinase activity in presence of increasing concentrations of compounds was calculated based on the ratio of fluorescence at 665 nm to that at 620 nm. The IC50 for each compound was derived from fitting the data to the four-parameter logistic equation by Dotmatics.
(In general: In TR-FRET formats the signal depends on donor and acceptor labels being close together.)

Another assay deals with CDK2/Cyclin E1 (Homo sapiens, UniProt P24941). The experiment in a line: CDK2/Cyclin E1 TR-FRET biochemical assay, 0.060 mM ATP. The note with it: 0.15 μM Rb (Ser780)-biotin substrate, 120 min reaction, Table 1. How it is done: as §1

Chain of CDK1/Cyclin B1 (P06493 whole entry): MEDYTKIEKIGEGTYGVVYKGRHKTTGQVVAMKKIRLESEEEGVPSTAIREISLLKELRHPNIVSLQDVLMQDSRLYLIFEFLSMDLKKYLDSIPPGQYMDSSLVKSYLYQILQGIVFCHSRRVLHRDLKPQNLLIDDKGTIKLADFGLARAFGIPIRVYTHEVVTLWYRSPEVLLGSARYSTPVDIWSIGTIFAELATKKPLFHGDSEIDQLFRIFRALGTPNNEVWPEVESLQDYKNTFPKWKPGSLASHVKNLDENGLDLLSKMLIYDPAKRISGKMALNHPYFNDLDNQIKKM
Chain of CDK1/Cyclin B1 (P14635 whole entry partner): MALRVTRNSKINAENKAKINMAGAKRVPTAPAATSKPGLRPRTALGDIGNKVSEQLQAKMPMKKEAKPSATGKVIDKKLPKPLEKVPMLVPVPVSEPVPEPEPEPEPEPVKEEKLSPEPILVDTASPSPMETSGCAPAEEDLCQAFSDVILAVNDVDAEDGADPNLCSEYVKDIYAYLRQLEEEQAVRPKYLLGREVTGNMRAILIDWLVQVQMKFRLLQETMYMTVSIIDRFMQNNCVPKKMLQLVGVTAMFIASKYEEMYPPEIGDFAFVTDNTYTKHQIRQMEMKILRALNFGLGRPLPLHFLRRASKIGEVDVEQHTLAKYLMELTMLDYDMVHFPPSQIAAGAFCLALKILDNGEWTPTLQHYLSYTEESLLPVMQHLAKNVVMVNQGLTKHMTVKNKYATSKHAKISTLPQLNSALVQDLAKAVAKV

As for `O=S1(=O)NCc2c1ccc(Nc1cc([C@H]3CC[C@@H](Oc4nscc4C4CC4)C3)[nH]n1)c2F` (relative stereo) [Example 53, cis-5-((5-(3-((4-cyclopropylisothiazol-3-yl)oxy)cyclopentyl)-1H-pyrazol-3-yl)amino)-4-fluoro-2,3-dihydrobenzo[d]isothiazole 1,1-dioxide], the IC50 came out at 118 nM against CDK1/Cyclin B1 and 4.1 nM against CDK2/Cyclin E1.

Take `Cc1ccnn([C@H]2CC[C@@H](c3cc(Nc4ccc5c(c4F)CNS5(=O)=O)n[nH]3)C2)c1=O` (relative stereo) [Example 23, cis-2-(3-(3-((4-fluoro-1,1-dioxido-2,3-dihydrobenzo[d]isothiazol-5-yl)amino)-1H-pyrazol-5-yl)cyclopentyl)-4-methylpyridazin-3 (2H)-one]: the IC50 came to 526 nM at CDK1/Cyclin B1 and 132 nM against CDK2/Cyclin E1.

On to `CC(C)c1ccnn([C@H]2CC[C@@H](c3cc(Nc4ccc5c(c4F)CNS5(=O)=O)n[nH]3)C2)c1=O` (relative stereo) [Example 26, cis-2-(3-(3-((4-fluoro-1,1-dioxido-2,3-dihydrobenzo[d]isothiazol-5-yl)amino)-1H-pyrazol-5-yl)cyclopentyl)-4-isopropylpyridazin-3 (2H)-one], for which the IC50 on CDK1/Cyclin B1 turned out to be 1690 nM; against CDK2/Cyclin E1, 140 nM.

For the molecule `Cc1ncccc1O[C@@H]1CC[C@H](c2cc(Nc3ccc4c(c3F)CNS4(=O)=O)n[nH]2)C1` (relative stereo) [Example 40, cis-4-fluoro-5-((5-(3-((2-methylpyridin-3-yl)oxy)cyclopentyl)-1H-pyrazol-3-yl)amino)-2,3-dihydrobenzo[d]isothiazole 1,1-dioxide], the IC50 turned out to be 552 nM against CDK1/Cyclin B1 and 19 nM on CDK2/Cyclin E1.

In the case of `Cn1ccc(O[C@@H]2CC[C@H](c3cc(Nc4ccc5c(c4F)CNS5(=O)=O)n[nH]3)C2)n1` (relative stereo) [Example 64, cis-4-fluoro-5-((5-(3-((1-methyl-1H-pyrazol-3-yl)oxy)cyclopentyl)-1H-pyrazol-3-yl)amino)-2,3-dihydrobenzo[d]isothiazole 1,1-dioxide], the results for the IC50 at CDK1/Cyclin B1 and at CDK2/Cyclin E1 were 1900 nM and 296 nM, respectively.

`CC(C)c1cnn([C@H]2CC[C@@H](c3cc(Nc4ccc5c(c4F)CNS5(=O)=O)n[nH]3)C2)c(=O)c1` (relative stereo) [Example 33, cis-2-(3-(3-((4-fluoro-1,1-dioxido-2,3-dihydrobenzo[d]isothiazol-5-yl)amino)-1H-pyrazol-5-yl)cyclopentyl)-5-isopropylpyridazin-3 (2H)-one]: the IC50 was found to be 703 nM against CDK1/Cyclin B1 and 7.5 nM at CDK2/Cyclin E1.

On to `Cc1cc(O[C@@H]2CC[C@H](c3cc(Nc4ccc5c(c4F)CNS5(=O)=O)n[nH]3)C2)n(-c2ccccc2)n1` (relative stereo) [Example 66, cis-4-fluoro-5-((5-(3-((3-methyl-1-phenyl-1H-pyrazol-5-yl)oxy)cyclopentyl)-1H-pyrazol-3-yl)amino)-2,3-dihydrobenzo[d]isothiazole 1,1-dioxide], for which the results for the IC50 on CDK1/Cyclin B1 and against CDK2/Cyclin E1 were above 10000 nM and 2530 nM, respectively.

Regarding `CC(C)(C)c1cnc([C@@H]2CC[C@H](c3cc(Nc4ccc5c(c4F)CS(=O)(=O)N5)n[nH]3)C2)o1` (relative stereo) [Example 145, cis-5-((5-(3-(5-(tert-butyl)oxazol-2-yl)cyclopentyl)-1H-pyrazol-3-yl)amino)-4-fluoro-1,3-dihydrobenzo[c]isothiazole 2,2-dioxide], the half-inhibitory concentration (IC50) at CDK1/Cyclin B1 came to 11 nM; against CDK2/Cyclin E1, 3.3 nM.

`C=C(C)c1cnn([C@H]2CC[C@@H](c3cc(Nc4ccc5c(c4F)CNS5(=O)=O)n[nH]3)C2)c(=O)c1` (relative stereo) [Example 32, cis-2-(3-(3-((4-fluoro-1,1-dioxido-2,3-dihydrobenzo[d]isothiazol-5-yl)amino)-1H-pyrazol-5-yl)cyclopentyl)-5-(prop-1-en-2-yl)pyridazin-3 (2H)-one]: the half-maximal inhibitory concentration (IC50) on CDK1/Cyclin B1 stood at 3570 nM; against CDK2/Cyclin E1 it was 48 nM.

As to `CC(C)c1cn[nH]c1O[C@@H]1CC[C@H](c2cc(Nc3ccc4c(c3F)CNS4(=O)=O)n[nH]2)C1` (relative stereo) [Example 60, cis-4-fluoro-5-((5-(3-((4-isopropyl-1H-pyrazol-5-yl)oxy)cyclopentyl)-1H-pyrazol-3-yl)amino)-2,3-dihydrobenzo[d]isothiazole 1,1-dioxide], the figures for the IC50 on CDK1/Cyclin B1 and at CDK2/Cyclin E1 were 732 nM and 12 nM, respectively.

In the case of `O=S1(=O)NCc2c1ccc(Nc1cc([C@H]3CC[C@@H](Oc4ccon4)C3)[nH]n1)c2F` (relative stereo) [Example 48, cis-4-fluoro-5-((5-(3-(isoxazol-3-yloxy)cyclopentyl)-1H-pyrazol-3-yl)amino)-2,3-dihydrobenzo[d]isothiazole 1,1-dioxide], the IC50 turned out to be 425 nM against CDK1/Cyclin B1 and 38 nM against CDK2/Cyclin E1.

As to `O=c1cccnn1[C@H]1CC[C@@H](c2cc(Nc3ccc4c(c3F)CNS4(=O)=O)n[nH]2)C1` (relative stereo) [Example 21, cis-2-(3-(3-((4-fluoro-1,1-dioxido-2,3-dihydrobenzo[d]isothiazol-5-yl)amino)-1H-pyrazol-5-yl)cyclopentyl)pyridazin-3 (2H)-one], the IC50 came out at 142 nM at CDK1/Cyclin B1 and 14 nM against CDK2/Cyclin E1.

With `CC(C)c1csnc1O[C@@H]1CC[C@H](c2cc(Nc3ccc4c(c3F)CNS4(=O)=O)n[nH]2)C1` (relative stereo) [Example 55, cis-4-fluoro-5-((5-(3-((4-isopropylisothiazol-3-yl)oxy)cyclopentyl)-1H-pyrazol-3-yl)amino)-2,3-dihydrobenzo[d]isothiazole 1,1-dioxide], the results for the IC50 against CDK1/Cyclin B1 and against CDK2/Cyclin E1 were 486 nM and 14 nM, respectively.

As to `CC(C)c1cncc(O[C@@H]2CC[C@H](c3cc(Nc4ccc5c(c4F)CNS5(=O)=O)n[nH]3)C2)c1` (relative stereo) [Example 44, cis-4-fluoro-5-((5-(3-((5-isopropylpyridin-3-yl)oxy)cyclopentyl)-1H-pyrazol-3-yl)amino)-2,3-dihydrobenzo[d]isothiazole 1,1-dioxide], the results for the IC50 against CDK1/Cyclin B1 and at CDK2/Cyclin E1 were 8340 nM and 1400 nM, respectively.

With `O=S1(=O)NCc2c1ccc(Nc1cc([C@H]3CC[C@@H](Oc4cccnn4)C3)[nH]n1)c2F` (relative stereo) [Example 22, cis-4-fluoro-5-((5-(3-(pyridazin-3-yloxy)cyclopentyl)-1H-pyrazol-3-yl)amino)-2,3-dihydrobenzo[d]isothiazole 1,1-dioxide], the values for the half-inhibitory concentration (IC50) against CDK1/Cyclin B1 and at CDK2/Cyclin E1 were 239 nM and 43 nM, respectively.

Take `CC(C)n1cnnc1O[C@@H]1CC[C@H](c2cc(Nc3ccc4c(c3F)CNS4(=O)=O)n[nH]2)C1` (relative stereo) [Example 57, cis-4-fluoro-5-((5-(3-((4-isopropyl-4H-1,2,4-triazol-3-yl)oxy)cyclopentyl)-1H-pyrazol-3-yl)amino)-2,3-dihydrobenzo[d]isothiazole 1,1-dioxide]: the IC50 was determined as 8300 nM at CDK1/Cyclin B1 and 341 nM against CDK2/Cyclin E1.

Regarding `O=S1(=O)Cc2cc(Nc3cc(C4CCC(c5ncc(CO)o5)C4)[nH]n3)ccc2N1` (stereo not drawn) [Example 134, 5-((5-(3-(5-(hydroxymethyl)oxazol-2-yl)cyclopentyl)-1H-pyrazol-3-yl)amino)-1,3-dihydrobenzo[c]isothiazole 2,2-dioxide], the values for the IC50 against CDK1/Cyclin B1 and against CDK2/Cyclin E1 were 1110 nM and 41 nM, respectively.

In the case of `CC1(C)CC(=O)N([C@H]2CC[C@@H](c3cc(Nc4ccc5c(c4F)CNS5(=O)=O)n[nH]3)C2)C1=O` (relative stereo) [Example 87, cis-1-(3-(3-((4-fluoro-1,1-dioxido-2,3-dihydrobenzo[d]isothiazol-5-yl)amino)-1H-pyrazol-5-yl)cyclopentyl)-3,3-dimethylpyrrolidine-2,5-dione], the IC50 at CDK1/Cyclin B1 came to 3250 nM; against CDK2/Cyclin E1 it was 229 nM.

With `CC(C)(C)c1cnc(C2CCC(c3cc(Nc4ccc5c(c4F)CNS5(=O)=O)n[nH]3)C2)o1` (single isomer, unassigned) [Example 91a, cis-5-((5-(3-(5-(tert-butyl)oxazol-2-yl)cyclopentyl)-1H-pyrazol-3-yl)amino)-4-fluoro-2,3-dihydrobenzo[d]isothiazole 1,1-dioxide], the IC50 came to 53 nM on CDK1/Cyclin B1 and 1.3 nM on CDK2/Cyclin E1.

As to `O=S1(=O)NCc2c1ccc(Nc1cc(C3CCC(c4ncc(CO)o4)C3)[nH]n1)c2F` (stereo not drawn) [Example 93, 4-fluoro-5-((5-(3-(5-(hydroxymethyl)oxazol-2-yl)cyclopentyl)-1H-pyrazol-3-yl)amino)-2,3-dihydrobenzo[d]isothiazole 1,1-dioxide], the IC50 worked out at 1760 nM on CDK1/Cyclin B1 and 70 nM at CDK2/Cyclin E1.

For the molecule `O=S1(=O)NCc2c1ccc(Nc1cc([C@H]3CC[C@@H](Oc4cn[nH]c4)C3)[nH]n1)c2F` (relative stereo) [Example 76, cis-5-((5-(3-((1H-pyrazol-4-yl)oxy)cyclopentyl)-1H-pyrazol-3-yl)amino)-4-fluoro-2,3-dihydrobenzo[d]isothiazole 1,1-dioxide], the half-inhibitory concentration (IC50) against CDK1/Cyclin B1 turned out to be 1610 nM; on CDK2/Cyclin E1 it was 53 nM.
